# Experiments:
# MCA-205 sarcoma = experiment: Avatar mice: FMT from responder (R) / non-responder (NR) NSCLC patients, MCA-205 tumors; assay type: in vivo, C57BL/6 mice
# Protocol: FIG. 5A is a schematic of the experimental design of avatar mice experiments. FMT from feces samples from Non-responders (NR) and responders (R) Non-small cell lung cancer (NSCLC) patients were individually performed after 3 days of ATB in SPF C57BI6 mice. Two weeks later, MCA-205 sarcoma cells were inoculated and daily gavage with water or CC were performed in combination with sequential injections of αPD-1 or IsoPD-1 mAb.
# FIG. 11A is a graph showing the effect of castalagin (0.85 mg/kg) in the presence or not of anti-PD-1 on tumor growth kinetics in the in the ATB-avatar model after FMT from 1 NR NSCLC patient with daily gavage with castalagin or water in combination with αPD1 mAb or IsoPD-1. Unpaired t-tests were used. Means ±SEM are represented. *p<0.05. […]
# Fecal microbiota transplantation (FM7) experiments. FMT was performed as previously published Routy et al. by thawing fecal material from 5 different Non-Small cell lung cancer (NSCLC) patients amenable to immune checkpoint blockers (ICI after appropriate ethics approval at the Centre de recherche du Centre hospitalier de l'Université de Montréal (CRCHUM) in Montreal. Patient records were retrospectively analyzed to identify their response status. Two weeks after FMT, tumor cells were injected subcutaneously and mice were treated with anti-PD-1 mAb or isotype control +/− CC, castalagin or water as described above.
# gut microbiota = experiment: 16S rRNA gene sequencing of mouse feces (microbiome profiling); assay type: in vivo, mice
# Protocol: Genomic DNA extraction from mouse feces. Total genomic DNA from fecal pellets was extracted using ZymoBIOMICS DNA Miniprep Kit (Zymo Research Corporation) and immediately stored at -80° C. This protocol involves a bead beating step to ensure full recovery of bacterial DNA. DNA concentration and quality were measured using the Nanodrop ND-1000 (ThermoFisher).
# 16S rRNA gene sequence processing and analysis mouse feces samples. Isolated DNA was analyzed using 16S ribosomal RNA (rRNA) gene sequence to investigate the microbial composition in fecal samples. The V3—V4 region of the 16S rDNA gene was amplified by PCR using primers Bakt_341F (5′-CCTACGGGNGGCWGCAG-3′, SEQ ID NO:5) and Bakt_805R (5′-[…]-3′, SEQ ID NO:6) adapted to incorporate the transposon-based Illumina Nextera adapters (Illumina) and a sample barcode sequence allowing multiplexed paired-end sequencing. PCR mixtures contained 1× Q5 buffer (NEB), 1× Q5 Enhancer (NEB), 200 μM dNTP (VWR International), 0.2 μM of forward and reverse primer (Integrated DNA Technologies), 1 unit of Q5 (NEB) and 1 μl of template DNA in a 50 μl reaction. The PCR cycling conditions consisted of an initial denaturation of 30 sec at 98° C., followed by a first set of 15 cycles (98° C. for 10 sec, 55° C. for 30 sec and 72° C. for 30 sec), then by a second step of 15 cycles (98° C. for 10 sec, 65° C. for 30 sec and 72° C. for 30 sec) and final elongation of 2 min at 72° C. before cooling to 4° C. indefinitely. PCR products were purified using 35 pl of magnetic beads (AxyPrep Mag PCR Clean up kit; Axygen Biosciences) per 50 μl PCR reaction. Amplifications were controlled on a Bioanalyzer 2100 using DNA 7500 chips (Agilent Technologies). Samples were pooled at an equimolar ratio; the pool was repurified as described before and checked for quality on a Bioanalyzer 2100 using a DNA high sensitivity chip. The pool was quantified using picogreen (Life Technologies) and loaded on a MiSeq system (Illumina). High-throughput sequencing was performed at the IBIS (Institut de Biologie Integrative et des Systèmes—Université Laval).
# Gene sequence processing and analysis was performed using R v4.0.0. DADA2R package v1.16.0 (Callahan et al., Nat Methods. 2016 July; 13(7):581-3) was used to generate exact amplicon sequence variants (ASV) of each sample from raw amplicon sequences. Sequences were corrected for Illumina amplicon sequence errors, de-replicated, chimera removed, and merged of paired-end reads with 260-bases for forward reads and 190-bases for reverse reads. The taxonomy assignment was performed against the SILVA reference database v138 (Quast et al., Nucleic Acids Res. 2013 January; 41(Database issue):D590-6). Archea and Eukaryota residual sequences were removed. Downstream analyses were performed at the genus-level through phyloseq R package v1.32.0 (McMurdie et al., PLoS One. 2013 Apr 22;8(4):e61217). The alpha-diversity was estimated with the Shannon diversity index and the Inverse Simpson index. These indexes were compared between groups using Mann-Whitney tests.
# Statistical analysis. Statistical analysis was performed using R v4.0.0. The Mann-Whitney U test was used to determine significant differences among the different groups using alpha-diversity which show the diversity in each individual sample measures. DESeq2 (Love et al., Genome Biol. 2014;15(12):550) was used to perform differential abundances analysis at the genus-level. […]
structure (smiles),measurement,setting,value
"O=C1OC[C@H]2OC(=O)c3cc(O)c(O)c(O)c3-c3c(O)c(O)c(O)c4c3C(=O)O[C@H]([C@H]3OC(=O)c5c-4c(O)c(O)c(O)c5[C@@H]3O)[C@@H]2OC(=O)c2cc(O)c(O)c(O)c2-c2c1cc(O)c(O)c2O [castalagin, Castalagin]",antitumor activity (tumor growth),"MCA-205 sarcoma; castalagin 0.85 mg/kg + αPD-1, post-FMT from NR NSCLC patients",additive effect when combined with αPD-1
same,antitumor activity (tumor growth),"MCA-205 sarcoma; castalagin 0.85 mg/kg alone, post-FMT from NR NSCLC patients, ATB and GF conditions",able to restore antitumor activity
same,beta-diversity (Bray-Curtis),"gut microbiota; MCA-205 model, SPF mice, castalagin or water gavage",significant clusters formation observed with beta-diversity
same,"differential abundance, taxa enriched","gut microbiota; MCA-205 model, SPF mice, castalagin/IsoPD-1 vs water/IsoPD-1","enrichment of Akkermensia, Ruminococcaceae UBA1819, Ruminococcus, Staphylococcus, Escherichia/shigella, Blautia and Alistipes"
same,alpha-diversity (observed genus),"gut microbiota; MCA-205 model, SPF mice, castalagin/isoPD-1, post-castalagin vs baseline",increased alpha-diversity
same,"relative abundance, genera increased","gut microbiota; NR FMT experiment, castalagin groups relative to water groups","increase of the relative abundance after 16s sequencing analysis of Ruminococcus, Alistepes, Christensenellaceae R7 group, Paraprevotella"
same,relative abundance of Lachnoclostridium,"gut microbiota; NR FMT experiment, castalagin vs water groups",no difference of Lachnoclostridium was observed
